Measured values from a melting point compilation (Tetko et al.; mined from patent text by program, amines drawn as free bases though some values may be those of a salt).

Compound	melting point [°C]
CC(Oc1ncn(-c2cccc(Br)c2)n1)C(N)=O (stereo not drawn)	141 to 144
Cc1nnc2ccc(-c3cccc(NC(=O)C4CC4)c3)nn12	255 to 258
Cc1ccc(NC#N)c(-c2ccccc2)c1	80
CN1CC(c2cc[nH]n2)CC2c3cccc4[nH]cc(c34)CC21 (stereo not drawn)	160 to 162
C=CCOCCc1ccc(OCC(O)CNC(C)C)cc1 (stereo not drawn)	52 to 53
CN(C)C(=O)Oc1ccc(C=O)c(O)c1	58 to 60
O=C1c2ccccc2SCC1(CO)CO	136 to 139
COc1cc(OC)c2c(C)c3n(c(=O)c2c1)CCCC3	165 to 168
CCOC(=O)N1CCn2c(nc(-c3ccncn3)cc2=O)C(NC(=O)c2ccc(-c3cnn(C)c3)cc2)C1 (stereo not drawn)	265 to 267
CC1CCC(C(C)C)C(C(=O)NC(C)(C)CO)C1 (stereo not drawn)	123
COc1cc(Nc2nccc(Nc3ccccc3)n2)cc(OC)c1OC	186
CC(C)(C(=O)O)c1ccc(C(=O)Nc2cn3cc(-c4ccsc4)ccc3n2)cc1	304 to 306
CC(=O)NCCc1nnc(S)s1	157 to 160
CN(C=O)CNC(=O)c1cc(Cl)nc(Cl)c1	150 to 155
O=C(Nc1ccccc1)Nc1nc(C=C2SC(=O)NC2=O)cs1	> 300
c1ccc2[nH]c(SSCCSSc3nc4ccccc4[nH]3)nc2c1	190 to 192
O=C(O)c1cccc2ccc(CBr)cc12	210 to 211
O=C1OC(c2ccccc2)N=C1CCCCNC(=O)c1ccccc1 (stereo not drawn)	118 to 122
CCCCCN1C(=O)C(CCC(=O)OCC)(NC(=O)c2ccc3ccccc3c2)c2ccc(OC)cc21 (stereo not drawn)	156 to 159
CC(C)(C)C(O)(CNc1ccc(Cl)c(Cl)c1)Cn1cncn1 (stereo not drawn)	132 to 133
Clc1cccnc1-c1cc(OCCc2ccccn2)c2[nH]nc(Nc3nccs3)c2c1	185 to 187
COC(=O)c1ccc(C2C(C(=O)c3ccc(C)cc3)=C(O)C(=O)N2c2ncc(S(=O)(=O)c3ccc([N+](=O)[O-])cc3)s2)cc1 (stereo not drawn)	249 to 251
CC1(C)CCC(C)(C)c2cc(C3=NN(c4ccc(C(=O)O)cc4)CC3)ccc21	276 to 278
Cc1ccc(C(=O)N2CCc3nnc(NN)cc3C2)cc1	207 to 210
COc1cc(O)c(C(=O)C=Cc2ccccc2)c(OC)c1	85.5

Compound	melting point [°C]
O=c1[nH]c2ccc(S(=O)CCN3CCC(Cc4cccc(F)c4F)CC3)cc2o1 (stereo not drawn)	188 to 190
CC(=O)NCC1(C)OCCc2c1[nH]c1ccccc21 (stereo not drawn)	100 to 102
COc1cc2c(cc1OCc1ccccc1)CCN(Cc1ccncc1)C2	125 to 126
CC(C)(C)OC(=O)NCC(CC(=O)O)c1ccc(Cl)cc1 (stereo not drawn)	139 to 141
COc1cccc(OC2CN([C@H]3CC[C@@H](c4cc5cc(C#N)ccc5[nH]4)CC3)C2)c1	126 to 127
CCCN(Cc1ccc(-c2ccccc2-c2nc(=O)s[nH]2)cc1)c1nc2ccccc2cc1C(=O)OCC	124 to 125
O=C1C(=C2C=C(c3ccccc3)S(=O)(=O)C(c3ccccc3)=C2)C(=O)c2ccccc21	235 to 236
Cc1[nH]c(C(C)(C)C)nc1CO	196
CN1CCCC1COc1ccc(-c2cccc(N)n2)c2ccccc12 (stereo not drawn)	80 to 95
COc1ccc([C@@H](O)[C@@H](N)Cc2ccc(C(F)(F)F)cc2)cc1 (racemic)	116 to 117
O=C1c2ccccc2C(O)N1CCCBr (stereo not drawn)	79
COc1cc(C(=O)O)ccc1Cc1cn(C)c2ccc(CC(C)C(=O)NCC3CCCC3)cc12 (stereo not drawn)	103 to 109
Cc1cc(C(=O)NC(C)CN(C)CC(C)NC(=O)c2cc(C)cc3nc4ccccc4nc23)c2nc3ccccc3nc2c1 (stereo not drawn)	75 to 78
CC(=NO)c1ncnc(OC(C)C)c1C	95.4 to 96.5
CCOC(=O)Cn1nc(-c2ccc(C)cc2)c(C(N)=O)c1N	179
Cc1ccnc(N2CCN(CCCCC3Sc4cc(O)ccc4NC3=O)CC2)c1 (stereo not drawn)	212
COC(=O)c1cc(O)c2nc(C)n(C)c2c1	286
CCOC(=O)C(=NOCC(N)=O)c1csc(NC(c2ccccc2)(c2ccccc2)c2ccccc2)n1	180
CCCCCCCC(SC)S(=O)(=O)c1ccc(C)cc1 (stereo not drawn)	65 to 66
Cc1cc2cnc(OCCc3ccc(OC(C)(C)C)cc3)nc2o1	75
N#CC=C(N)c1ccsc1	67 to 69.5
Oc1c(-c2ccccc2)cc(Cn2c(=S)sc3ccccc32)cc1-c1ccccc1	145 to 146
S=C(Nc1cccc(Cl)c1)N1CCCSC1c1ccccc1 (stereo not drawn)	132 to 135
Nc1nc(NC2CCCC2)c2ncn(C3C=CC(CO)C3)c2n1 (stereo not drawn)	143 to 146
O=C1NCCNC1c1cn(Cc2ccccc2Cl)c2ccccc12 (stereo not drawn)	181

Compound	melting point [°C]
COC(=O)C1CCN(S(=O)(=O)c2ccc(Cl)c(COc3cccc4c(-n5ccnc5)cc(C)nc34)c2Cl)C1 (stereo not drawn)	180
CCOC(=O)C1=NNC2C(=O)N(Cc3ccccc3)C(=O)C12 (stereo not drawn)	100 to 101
C=CCOc1ccccc1C1C(C(=O)OCC)=C(C)NC(C#N)=C1C(=O)OCC (stereo not drawn)	143 to 145
C=CCC1NC(=O)C1C(C)(C)O (stereo not drawn)	144
C[C@H]1N(C(=O)OCc2ccccc2)COC1(O)c1ccc(OCc2ccccc2)cc1 (stereo partly drawn)	82 to 86
O=[N+]([O-])c1ccc2ncnc(Nc3ccc4ncccc4c3)c2c1	> 300
COC(=O)C1=C(C)NC(C)=C(c2nc(-c3ccc(CN(C)Cc4ccccc4)cc3)no2)C1c1cccc([N+](=O)[O-])c1 (stereo not drawn)	192 to 193
COc1ccc2c(c1)C(=O)Nc1ccccc1N2	216 to 218
CCOC(=O)c1ccc(C(Cc2ccc(F)cc2)C(=O)Nc2nc3ccccc3o2)cc1 (stereo not drawn)	122 to 125
CC(C)c1ccc(NC(=O)Oc2ccc3c(c2)CCN3Cc2ccccc2)cc1	145 to 150
Oc1ccc(C2CC(c3ccc(O)cc3)C2)cc1 (stereo not drawn)	148 to 164
O=C(Nc1nccs1)c1c(C(F)(F)F)nc2cc(C(F)(F)F)ccc2c1O	270
CCC(=O)N1N=C(c2ccc(N)c(C)c2)c2cc(Cl)ccc2C=C1C	218 to 221
N#Cc1cncc(C=O)c1	96 to 98
COc1nc(-c2ccc(=O)n(C(C)C)n2)c(-c2ccccc2)nc1N	211 to 214
CN(C)c1cc(NC(=O)c2ccccc2-c2ccc(C(F)(F)F)cc2)cnc1OCCCC1(C(=O)NCC(F)(F)F)c2ccccc2-c2ccccc21	140 to 141
CCCC1=C(C#N)C(c2cccc3nsnc23)c2c[nH]nc2N1 (stereo not drawn)	195
C[C@@H](N)CNc1ccnc2cc(Cl)ccc12	145
CCOC(=O)c1ccc(-c2ncc(Cl)nc2Cl)cc1	88.5 to 90
CC(C1CC1)C(O)(Cn1nc[nH]c1=S)c1ccc(Cl)cc1 (stereo not drawn)	137
COc1ccc2c(c1)sc1nc(C(=O)C3CC3)cn12	213
COc1cccc2oc(-c3ccc(F)cc3)cc(=O)c12	178
CC(C)OC(=O)C=C1CN=C(c2ccccc2F)c2cc(Cl)ccc2N1	144 to 145
